Assay results taken from PubChem BioAssay AID2060487 (Molecular Pharmacology Branch, DTP, NCI, 2025).

System: 997537-175-T-J1-PDC complex spheroid viability
Assay: Anticancer human tumor 997537-175-T-J1-PDC patient-derived colon adenocarcinoma cell line growth inhibition [GQUAD]
Details: for IC50: curve of first compound; for viability, T/C: stronger effect = lower value
How it was run: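 Tumor cells were grown as complex spheroids with HUVEC endothelial cells and mesenchymal stem cells as stroma. G-quadruplex stabilizers were combined with targeted agents over half-log dilutions from near the clinical Cmax, or from 10 microM.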

[1] = second compound 0.0316 µM, first compound 0.0316 µM
[2] = second compound 0.0316 µM, first compound 0.1 µM
[3] = second compound 0.0316 µM, first compound 0.316 µM
[4] = second compound 0.0316 µM, first compound 1 µM
[5] = second compound 0.0316 µM, first compound 3.16 µM
[6] = second compound 0.0316 µM, first compound 10 µM
[7] = second compound 0.1 µM, first compound 0.0316 µM
[8] = second compound 0.1 µM, first compound 0.1 µM
[9] = second compound 0.1 µM, first compound 0.316 µM
[10] = second compound 0.1 µM, first compound 1 µM
[11] = second compound 0.1 µM, first compound 3.16 µM
[12] = second compound 0.1 µM, first compound 10 µM
[13] = second compound 0.316 µM, first compound 0.0316 µM
[14] = second compound 0.316 µM, first compound 0.1 µM
[15] = second compound 0.316 µM, first compound 0.316 µM
[16] = second compound 0.316 µM, first compound 1 µM
[17] = second compound 0.316 µM, first compound 3.16 µM
[18] = second compound 0.316 µM, first compound 10 µM
[19] = second compound 1 µM, first compound 0.0316 µM
[20] = second compound 1 µM, first compound 0.1 µM
[21] = second compound 1 µM, first compound 0.316 µM
[22] = second compound 1 µM, first compound 1 µM
[23] = second compound 1 µM, first compound 3.16 µM
[24] = second compound 1 µM, first compound 10 µM
[25] = second compound 3.16 µM, first compound 0.0316 µM
[26] = second compound 3.16 µM, first compound 0.1 µM
[27] = second compound 3.16 µM, first compound 0.316 µM
[28] = second compound 3.16 µM, first compound 1 µM
[29] = second compound 3.16 µM, first compound 3.16 µM
[30] = second compound 3.16 µM, first compound 10 µM
[31] = second compound 10 µM, first compound 0.0316 µM
[32] = second compound 10 µM, first compound 0.1 µM
[33] = second compound 10 µM, first compound 0.316 µM
[34] = second compound 10 µM, first compound 1 µM
[35] = second compound 10 µM, first compound 3.16 µM
[36] = second compound 10 µM, first compound 10 µM
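Also: spheroids exposed to the agents for 7 days.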
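For viability, T/C in this document: 100% = DMSO vehicle control viability.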

## CC1COCCN1c1cc(C2(O)CC3CCC(C2)O3)c2cnn(-c3ccn[nH]3)c2n1 (centres undefined) + Cc1[nH]c2ccc(F)cc2c1-c1nc2c3cccnc3c3ncccc3c2[nH]1
Second compound 0.0316 µM
  IC50: 303 nM
Second compound 0.1 µM
  IC50: 355 nM
Second compound 0.316 µM
  IC50: 305 nM
Second compound 1 µM
  IC50: 155 nM
Second compound 3.16 µM
  IC50: < 31.6 nM
Second compound 10 µM
  IC50: 74.6 nM
[1]
  viability, T/C: 74.3%
[2]
  viability, T/C: 56.8%
[3]
  viability, T/C: 62.4%
[4]
  viability, T/C: 22.3%
[5]
  viability, T/C: 40.2%
[6]
  viability, T/C: 56%
[7]
  viability, T/C: 75.3%
[8]
  viability, T/C: 59.5%
[9]
  viability, T/C: 57.9%
[10]
  viability, T/C: 32.7%
[11]
  viability, T/C: 45.4%
[12]
  viability, T/C: 52.7%
[13]
  viability, T/C: 78.7%
[14]
  viability, T/C: 61.9%
[15]
  viability, T/C: 45.5%
[16]
  viability, T/C: 38.6%
[17]
  viability, T/C: 54%
[18]
  viability, T/C: 60.4%
[19]
  viability, T/C: 54.7%
[20]
  viability, T/C: 57.6%
[21]
  viability, T/C: 44.9%
[22]
  viability, T/C: 40.8%
[23]
  viability, T/C: 38.7%
[24]
  viability, T/C: 61.4%
[25]
  viability, T/C: 55.1%
[26]
  viability, T/C: 34.3%
[27]
  viability, T/C: 44%
[28]
  viability, T/C: 29.2%
[29]
  viability, T/C: 44.5%
[30]
  viability, T/C: 60.4%
[31]
  viability, T/C: 61.2%
[32]
  viability, T/C: 44.8%
[33]
  viability, T/C: 42.5%
[34]
  viability, T/C: 43.6%
[35]
  viability, T/C: 31.9%
[36]
  viability, T/C: 41.3%

## O=C(NO)c1cnc(N2CCN(S(=O)(=O)c3ccc4ccccc4c3)CC2)nc1 + CN(C)c1ccc(Nc2c3ccc(NC(=O)CCN4CCCC4)cc3nc3cc(NC(=O)CCN4CCCC4)ccc23)cc1
Second compound 0.0316 µM
  IC50: 2410 nM
Second compound 0.1 µM
  IC50: 1440 nM
Second compound 0.316 µM
  IC50: 2040 nM
Second compound 1 µM
  IC50: 1530 nM
Second compound 3.16 µM
  IC50: 1610 nM
Second compound 10 µM
  IC50: 2120 nM
[1]
  viability, T/C: 96%
[2]
  viability, T/C: 88.2%
[3]
  viability, T/C: 105%
[4]
  viability, T/C: 76.5%
[5]
  viability, T/C: 41.6%
[6]
  viability, T/C: 0.32%
[7]
  viability, T/C: 112%
[8]
  viability, T/C: 90.9%
[9]
  viability, T/C: 91%
[10]
  viability, T/C: 66.8%
[11]
  viability, T/C: 18%
[12]
  viability, T/C: 0.22%
[13]
  viability, T/C: 94.3%
[14]
  viability, T/C: 97.8%
[15]
  viability, T/C: 82.1%
[16]
  viability, T/C: 82.4%
[17]
  viability, T/C: 30.8%
[18]
  viability, T/C: 0.23%
[19]
  viability, T/C: 69.8%
[20]
  viability, T/C: 86.4%
[21]
  viability, T/C: 98.9%
[22]
  viability, T/C: 77.8%
[23]
  viability, T/C: 3.02%
[24]
  viability, T/C: 0.59%
[25]
  viability, T/C: 63.6%
[26]
  viability, T/C: 105%
[27]
  viability, T/C: 105%
[28]
  viability, T/C: 84.1%
[29]
  viability, T/C: 1.75%
[30]
  viability, T/C: 0.47%
[31]
  viability, T/C: 83.4%
[32]
  viability, T/C: 90%
[33]
  viability, T/C: 95.6%
[34]
  viability, T/C: 79%
[35]
  viability, T/C: 34.1%
[36]
  viability, T/C: 0.44%
